According to ChEMBL document CHEMBL1143336, “Structure-activity relationship study on polyglutamine binding peptide QBP1” (Bioorg Med Chem, 2009):
pIC50: −log10 of the molar value.

Key:
[1] = Inhibition of thioredoxin-conjugated PolyQ-62 protein aggregation expressed in Escherichia coli DH5alpha
[2] = Inhibition of thioredoxin-conjugated PolyQ-62 protein aggregation expressed in Escherichia coli DH5alpha at 20 uM relative to control

Row | pIC50 [1] | inhibition [2] [%] | Molecule
1 | 5.35 | 80.7 | CC[C@H](C)[C@H](NC(=O)CNC(=O)[C@@H]1CCCN1C(=O)[C@H](Cc1c[nH]c2ccccc12)NC(=O)[C@H](Cc1c[nH]c2ccccc12)NC(=O)[C@H](CCCCN)NC(=O)[C@H](Cc1c[nH]c2ccccc12)NC(=O)[C@@H](CC(N)=O)NC(=O)[C@H](CO)NC(C)=O)C(=O)N[C@@H](Cc1ccccc1)C(=O)N[C@@H](CC(=O)O)C(N)=O
2 | 5.30 | 77.2 | CC[C@H](C)[C@H](NC(=O)CNC(=O)[C@@H]1CCCN1C(=O)[C@H](Cc1c[nH]c2ccccc12)NC(=O)[C@H](Cc1c[nH]c2ccccc12)NC(=O)[C@H](CCCCN)NC(=O)[C@H](Cc1c[nH]c2ccccc12)NC(=O)[C@H](CC(N)=O)NC(=O)[C@H](CO)NC(C)=O)C(=O)N[C@@H](Cc1ccccc1)C(=O)N[C@H](CC(=O)O)C(N)=O
3 | < 4.70 | 65.3 | CC[C@H](C)[C@H](NC(=O)CNC(=O)[C@@H]1CCCN1C(=O)[C@H](Cc1c[nH]c2ccccc12)NC(=O)[C@H](Cc1c[nH]c2ccccc12)NC(=O)[C@H](CCCCN)NC(=O)[C@H](Cc1c[nH]c2ccccc12)NC(=O)[C@H](CC(N)=O)NC(=O)[C@H](CO)NC(C)=O)C(=O)N[C@H](Cc1ccccc1)C(=O)N[C@@H](CC(=O)O)C(N)=O
4 | 5.30 | 76.7 | CC[C@H](C)[C@H](NC(=O)CNC(=O)[C@@H]1CCCN1C(=O)[C@H](Cc1c[nH]c2ccccc12)NC(=O)[C@H](Cc1c[nH]c2ccccc12)NC(=O)[C@H](CCCCN)NC(=O)[C@H](Cc1c[nH]c2ccccc12)NC(=O)[C@H](CC(N)=O)NC(=O)[C@H](CO)NC(C)=O)C(=O)N[C@@H](Cc1ccccc1)C(=O)N[C@@H](CC(=O)O)C(N)=O
5 | 4.94 | 64.9 | CC[C@H](C)[C@H](NC(=O)[C@H](C)NC(=O)[C@@H]1CCCN1C(=O)[C@H](Cc1c[nH]c2ccccc12)NC(=O)[C@H](Cc1c[nH]c2ccccc12)NC(=O)[C@H](CCCCN)NC(=O)[C@H](Cc1c[nH]c2ccccc12)NC(=O)[C@H](CC(N)=O)NC(=O)[C@H](CO)NC(C)=O)C(=O)N[C@@H](Cc1ccccc1)C(=O)N[C@@H](CC(=O)O)C(N)=O
6 | 5.36 | 83.2 | CC[C@H](C)[C@H](NC(=O)CNC(=O)[C@@H]1CCCN1C(=O)[C@H](Cc1c[nH]c2ccccc12)NC(=O)[C@H](Cc1c[nH]c2ccccc12)NC(=O)[C@H](CCCCN)NC(=O)[C@H](Cc1c[nH]c2ccccc12)NC(=O)[C@H](CC(N)=O)NC(=O)[C@@H](CO)NC(C)=O)C(=O)N[C@@H](Cc1ccccc1)C(=O)N[C@@H](CC(=O)O)C(N)=O
7 | – | 33.2 | CC[C@H](C)[C@@H](NC(=O)CNC(=O)[C@@H]1CCCN1C(=O)[C@H](Cc1c[nH]c2ccccc12)NC(=O)[C@H](Cc1c[nH]c2ccccc12)NC(=O)[C@H](CCCCN)NC(=O)[C@H](Cc1c[nH]c2ccccc12)NC(=O)[C@H](CC(N)=O)NC(=O)[C@H](CO)NC(C)=O)C(=O)N[C@@H](Cc1ccccc1)C(=O)N[C@@H](CC(=O)O)C(N)=O
8 | – | 8.4 | CC[C@H](C)[C@H](NC(=O)CNC(=O)[C@@H]1CCCN1C(=O)[C@@H](Cc1c[nH]c2ccccc12)NC(=O)[C@H](Cc1c[nH]c2ccccc12)NC(=O)[C@H](CCCCN)NC(=O)[C@H](Cc1c[nH]c2ccccc12)NC(=O)[C@H](CC(N)=O)NC(=O)[C@H](CO)NC(C)=O)C(=O)N[C@@H](Cc1ccccc1)C(=O)N[C@@H](CC(=O)O)C(N)=O
9 | – | 6.4 | CC[C@H](C)[C@H](NC(=O)CNC(=O)[C@@H]1CCCN1C(=O)[C@H](Cc1c[nH]c2ccccc12)NC(=O)[C@@H](Cc1c[nH]c2ccccc12)NC(=O)[C@H](CCCCN)NC(=O)[C@H](Cc1c[nH]c2ccccc12)NC(=O)[C@H](CC(N)=O)NC(=O)[C@H](CO)NC(C)=O)C(=O)N[C@@H](Cc1ccccc1)C(=O)N[C@@H](CC(=O)O)C(N)=O
10 | – | 9.9 | CC[C@H](C)[C@H](NC(=O)CNC(=O)[C@@H]1CCCN1C(=O)[C@H](Cc1c[nH]c2ccccc12)NC(=O)[C@H](Cc1c[nH]c2ccccc12)NC(=O)[C@@H](CCCCN)NC(=O)[C@H](Cc1c[nH]c2ccccc12)NC(=O)[C@H](CC(N)=O)NC(=O)[C@H](CO)NC(C)=O)C(=O)N[C@@H](Cc1ccccc1)C(=O)N[C@@H](CC(=O)O)C(N)=O
11 | – | 41.1 | CC[C@H](C)[C@H](NC(=O)CNC(=O)[C@@H]1CCCN1C(=O)[C@H](Cc1c[nH]c2ccccc12)NC(=O)[C@H](Cc1c[nH]c2ccccc12)NC(=O)[C@H](CCCCN)NC(=O)[C@@H](Cc1c[nH]c2ccccc12)NC(=O)[C@H](CC(N)=O)NC(=O)[C@H](CO)NC(C)=O)C(=O)N[C@@H](Cc1ccccc1)C(=O)N[C@@H](CC(=O)O)C(N)=O
12 | – | 25.7 | CC[C@H](C)[C@H](NC(=O)CNC(=O)[C@H]1CCCN1C(=O)[C@H](Cc1c[nH]c2ccccc12)NC(=O)[C@H](Cc1c[nH]c2ccccc12)NC(=O)[C@H](CCCCN)NC(=O)[C@H](Cc1c[nH]c2ccccc12)NC(=O)[C@H](CC(N)=O)NC(=O)[C@H](CO)NC(C)=O)C(=O)N[C@@H](Cc1ccccc1)C(=O)N[C@@H](CC(=O)O)C(N)=O
13 | – | 16.3 | CC[C@H](C)[C@H](NC(=O)[C@@H](C)NC(=O)[C@@H]1CCCN1C(=O)[C@H](Cc1c[nH]c2ccccc12)NC(=O)[C@H](Cc1c[nH]c2ccccc12)NC(=O)[C@H](CCCCN)NC(=O)[C@H](Cc1c[nH]c2ccccc12)NC(=O)[C@H](CC(N)=O)NC(=O)[C@H](CO)NC(C)=O)C(=O)N[C@@H](Cc1ccccc1)C(=O)N[C@@H](CC(=O)O)C(N)=O
14 | 5.20 | 78.2 | Ac-ANWKWWPGIFD-NH2
15 | – | 5.4 | Ac-KWWPGIFD-NH2
16 | 5.30 | 78.2 | Ac-NWKWWPGIFD-NH2

Row | pIC50 [1] | inhibition [2] [%] | Molecule
17 | 5.37 | 82.2 | Ac-SAWKWWPGIFD-NH2
18 | – | -4 | Ac-SNAKWWPGIFD-NH2
19 | 5.07 | 78.2 | Ac-SNWAWWPGIFD-NH2
20 | – | -5.4 | Ac-SNWKAWPGIFD-NH2
21 | 5.00 | 58.9 | Ac-SNWKWWAGIFD-NH2
22 | – | 11.4 | Ac-SNWKWWP-NH2
23 | – | 5.9 | Ac-SNWKWWPG-NH2
24 | – | 9.9 | Ac-SNWKWWPGAFD-NH2
25 | – | 7.4 | Ac-SNWKWWPGI-NH2
26 | – | 11.4 | Ac-SNWKWWPGIAD-NH2
27 | 4.84 | 57.4 | Ac-SNWKWWPGIF-NH2
28 | 4.81 | 67.8 | Ac-SNWKWWPGIFA-NH2
29 | 5.44 | 85.6 | Ac-WKWWPGIF-NH2
30 | 5.54 | 81.2 | Ac-WKWWPGIFD-NH2
31 | – | 5 | Ac-WWPGIFD-NH2
